# Patent publication US20170107229A1, “SUBSTITUTED TETRAHYDROPYRIDOTHIENOPYRIMIDINES” (BAYER PHARMA AKTIENGESELLSCHAFT, priority 2014, published 2017)
# Molecular target: T1, human full-length MKNK1 (Homo sapiens, UniProt Q9BUB5, T385D)
# T1 construct: GST (N); purchased Carna Biosciences 02-145; host or cells: insect cells (baculovirus expression system)
# Experiment: MKNK1 kinase high ATP assay (TR-FRET)
# Format: biochemical
# Conditions: high ATP (2 mM final), 15 min preincubation with enzyme, GST-MKNK1 (T344D)
# In short: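 GST-tagged human full-length MKNK1 (T344D), insect-cell expressed, preincubated 15 min at 22 °C with compound, then reacted 30 min at 22 °C with 2 mM ATP and 0.06 μM biotinylated peptide (final) in HEPES pH 7.5. Phospho-peptide detected by TR-FRET (665/620 nm ratio) after EDTA stop; normalised to no-inhibitor and no-enzyme controls.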
# T1 sequence (Q9BUB5 1-424 isoform Q9BUB5-2 T344D): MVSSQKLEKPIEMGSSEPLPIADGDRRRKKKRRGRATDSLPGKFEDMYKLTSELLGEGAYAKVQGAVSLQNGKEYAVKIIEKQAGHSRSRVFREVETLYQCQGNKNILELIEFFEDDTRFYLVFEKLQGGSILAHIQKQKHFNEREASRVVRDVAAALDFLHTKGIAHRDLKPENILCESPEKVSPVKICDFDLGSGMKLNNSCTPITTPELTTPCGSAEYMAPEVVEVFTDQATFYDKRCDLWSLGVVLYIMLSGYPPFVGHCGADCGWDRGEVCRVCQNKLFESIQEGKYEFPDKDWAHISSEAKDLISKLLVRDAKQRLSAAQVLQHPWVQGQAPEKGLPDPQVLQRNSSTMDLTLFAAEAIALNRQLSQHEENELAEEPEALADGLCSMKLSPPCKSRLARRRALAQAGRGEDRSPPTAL
row,SMILES,IC50 [nM]
1,"CS(=O)(=O)N1CCc2c(sc3ncnc(Nc4ccc5[nH]ncc5c4)c23)C1 [Example 38, N-(1H-Indazol-5-yl)-7-(methylsulfonyl)-5,6,7,8-tetrahydropyrido[4′,3′:4,5]thieno[2,3-d]pyrimidin-4-amine]",68
2,"COc1cc2[nH]ncc2cc1Nc1ncnc2sc3c(c12)CCN(CCC(=O)N(C)C)C3 [Example 71, 3-{4-[(6-Methoxy-1H-indazol-5-yl)amino]-5,8-dihydropyrido[4′,3′:4,5]thieno[2,3-d]pyrimidin-7(6H)-yl}-N,N-dimethylpropanamide]",19
3,"COc1cc2[nH]ncc2cc1NCCN(C)C(=O)N1CCc2c(sc3ncnc(Nc4cc5cn[nH]c5cc4OC)c23)C1 [Example 82, 4-[(6-Methoxy-1H-indazol-5-yl)amino]-N-{2-[(6-methoxy-1H-indazol-5-yl)amino]ethyl}-N-methyl-5,8-dihydropyrido[4′,3′:4,5]thieno[2,3-d]pyrimidine-7(6H)-carboxamide]",48
4,"CCOCCN(C)C(=O)N1CCc2c(sc3ncnc(Nc4cc5cn[nH]c5cc4OC)c23)C1 [Example 78, N-(2-Ethoxyethyl)-4-[(6-methoxy-1H-indazol-5-yl)amino]-N-methyl-5,8-dihydropyrido[4′,3′:4,5]thieno[2,3-d]pyrimidine-7(6H)-carboxamide]",1020
5,"C[C@@H]1CN(C(=O)N2CCc3c(sc4ncnc(Nc5ccc6[nH]c(=O)sc6c5)c34)C2)C[C@H](C)O1 [Example 31, 6-[(7-{[(2R,6S)-2,6-Dimethylmorpholin-4-yl]carbonyl}-5,6,7,8-tetrahydropyrido[4′,3′:4,5]thieno[2,3-d]pyrimidin-4-yl)amino]-1,3-benzothiazol-2(3H)-one]",59
6,"COc1cc2[nH]ncc2cc1Nc1ncnc2sc3c(c12)CCN(S(C)(=O)=O)C3 [Example 37, N-(6-Methoxy-1H-indazol-5-yl)-7-(methylsulfonyl)-5,6,7,8-tetrahydropyrido[4′,3′:4,5]thieno[2,3-d]pyrimidin-4-amine]",3
7,"COc1cc2[nH]ncc2cc1Nc1ncnc2sc3c(c12)CCN(CCN1CCCC1=O)C3 [Example 85, 1-(2-{4-[(6-Methoxy-1H-indazol-5-yl)amino]-5,8-dihydropyrido[4′,3′:4,5]thieno[2,3-d]pyrimidin-7(6H)-yl}ethyl)pyrrolidin-2-one]",10
8,"COc1cc2[nH]ncc2cc1Nc1ncnc2sc3c(c12)CCN(C(=O)NCCC(F)(F)F)C3 [Example 100, 4-[(6-Methoxy-1H-indazol-5-yl)amino]-N-(3,3,3-trifluoropropyl)-5,8-dihydropyrido[4′,3′:4,5]thieno[2,3-d]pyrimidine-7(6H)-carboxamide]",1
9,"C[C@@H]1CN(C(=O)N2CCc3c(sc4ncnc(Nc5cc6cn[nH]c6cn5)c34)C2)C[C@H](C)O1 [Example 34, [(2R,6S)-2,6-Dimethylmorpholin-4-yl][4-(1H-pyrazolo[3,4-c]pyridin-5-ylamino)-5,8-dihydropyrido[4′,3′:4,5]thieno[2,3-d]pyrimidin-7(6H)-yl]methanone]",70
10,"COc1cc2[nH]ncc2cc1Nc1ncnc2sc3c(c12)CCN(C(=O)N1CCCCC1)C3 [Example 70, {4-[(6-Methoxy-1H-indazol-5-yl)amino]-5,8-dihydropyrido[4′,3′:4,5]thieno[2,3-d]pyrimidin-7(6H)-yl}(piperidin-1-yl)methanone]",19
11,"CC(C)(C)OC(=O)N1CCc2c(sc3ncnc(Nc4ccc5[nH]c(=O)sc5c4)c23)C1 [Example 3, tert-Butyl 4-[(2-oxo-2,3-dihydro-1,3-benzothiazol-6-yl)amino]-5,8-dihydropyrido[4′,3′:4,5]thieno[2,3-d]pyrimidine-7(6H)-carboxylate]",71
12,"CC(C)(C)OC(=O)N1CCc2c(sc3ncnc(Nc4cc5cn[nH]c5cc4Br)c23)C1 [Example 25, tert-Butyl 4-[(6-bromo-1H-indazol-5-yl)amino]-5,8-dihydropyrido[4′,3′:4,5]thieno[2,3-d]pyrimidine-7(6H)-carboxylate]",31
13,"COc1cc2[nH]ncc2cc1Nc1ncnc2sc3c(c12)CCN(C(=O)C1CCCC1)C3 [Example 91, Cyclopentyl{4-[(6-methoxy-1H-indazol-5-yl)amino]-5,8-dihydropyrido[4′,3′:4,5]thieno[2,3-d]pyrimidin-7(6H)-yl}methanone]",3
14,"COc1cc2[nH]ncc2cc1Nc1ncnc2sc3c(c12)CCN(CCCN1CCOCC1)C3 [Example 90, N-(6-Methoxy-1H-indazol-5-yl)-7-[3-(morpholin-4-yl)propyl]-5,6,7,8-tetrahydropyrido[4′,3′:4,5]thieno[2,3-d]pyrimidin-4-amine]",4
15,"COc1cc2[nH]ncc2cc1Nc1ncnc2sc3c(c12)CCN(CCCn1cccc1)C3 [Example 84, N-(6-Methoxy-1H-indazol-5-yl)-7-[3-(1H-pyrrol-1-yl)propyl]-5,6,7,8-tetrahydropyrido[4′,3′:4,5]thieno[2,3-d]pyrimidin-4-amine]",8
16,"CSc1cc2[nH]ncc2cc1Nc1ncnc2sc3c(c12)CCNC3 [Example 1, N-[6-(Methylsulfanyl)-1H-indazol-5-yl]-5,6,7,8-tetrahydropyrido[4′,3′:4,5]thieno[2,3-d]pyrimidin-4-amine]",24
17,"COc1nc2[nH]ncc2cc1Nc1ncnc2sc3c(c12)CCN(C(=O)C(C)C)C3 [Example 55, 1-{4-[(6-Methoxy-1H-pyrazolo[3,4-b]pyridin-5-yl)amino]-5,8-dihydropyrido[4′,3′:4,5]thieno[2,3-d]pyrimidin-7(6H)-yl}-2-methylpropan-1-one]",42
18,"c1nc(Nc2cnc3[nH]ncc3c2)c2c3c(sc2n1)CN(CCN1CCOCC1)CC3 [Example 64, 7-[2-(Morpholin-4-yl)ethyl]-N-(1H-pyrazolo[3,4-b]pyridin-5-yl)-5,6,7,8-tetrahydropyrido[4′,3′:4,5]thieno[2,3-d]pyrimidin-4-amine]",119
19,"CN(C)C(=O)N1CCc2c(sc3ncnc(Nc4ccc5[nH]c(=O)sc5c4)c23)C1 [Example 17, N,N-Dimethyl-4-[(2-oxo-2,3-dihydro-1,3-benzothiazol-6-yl)amino]-5,8-dihydropyrido[4′,3′:4,5]thieno[2,3-d]pyrimidine-7(6H)-carboxamide]",88
20,"CC(C)(C)OC(=O)N1CCc2c(sc3ncnc(Nc4cnc5[nH]ncc5c4)c23)C1 [Example 6, tert-Butyl 4-(1H-pyrazolo[3,4-b]pyridin-5-ylamino)-5,8-dihydropyrido[4′,3′:4,5]thieno[2,3-d]pyrimidine-7(6H)-carboxylate]",47

# More lines, now with the values ahead:
row,IC50 [nM],SMILES
1,9,"COc1cc2[nH]ncc2cc1Nc1ncnc2sc3c(c12)CCN(C(=O)N1[C@@H](C)COC[C@@H]1C)C3 [Example 101, [(3S,5S)-3,5-Dimethylmorpholin-4-yl]{4-[(6-methoxy-1H-indazol-5-yl)amino]-5,8-dihydropyrido[4′,3′:4,5]thieno[2,3-d]pyrimidin-7(6H)-yl}methanone]"
2,2,"COc1cc2[nH]ncc2cc1Nc1ncnc2sc3c(c12)CCN(C(=O)N(C)CCC(F)(F)F)C3 [Example 99, 4-[(6-Methoxy-1H-indazol-5-yl)amino]-N-methyl-N-(3,3,3-trifluoropropyl)-5,8-dihydropyrido[4′,3′:4,5]thieno[2,3-d]pyrimidine-7(6H)-carboxamide]"
3,236,"O=c1[nH]c2ccc(Nc3ncnc4sc5c(c34)CCN(CCN3CCOCC3)C5)cc2s1 [Example 63, 6-({7-[2-(Morpholin-4-yl)ethyl]-5,6,7,8-tetrahydropyrido[4′,3′:4,5]thieno[2,3-d]pyrimidin-4-yl}amino)-1,3-benzothiazol-2(3H)-one]"
4,3,"COc1cc2[nH]ncc2cc1Nc1ncnc2sc3c(c12)CCN(C(=O)N1CCOC[C@H]1C)C3 [Example 96, {4-[(6-Methoxy-1H-indazol-5-yl)amino]-5,8-dihydropyrido[4′,3′:4,5]thieno[2,3-d]pyrimidin-7(6H)-yl}[(3R)-3-methylmorpholin-4-yl]methanone]"
5,90,"CN1CCC(C(=O)N2CCc3c(sc4ncnc(Nc5ccc6[nH]c(=O)sc6c5)c34)C2)CC1 [Example 66, 6-({7-[(1-Methylpiperidin-4-yl)carbonyl]-5,6,7,8-tetrahydropyrido[4′,3′:4,5]thieno[2,3-d]pyrimidin-4-yl}amino)-1,3-benzothiazol-2(3H)-one]"
6,3,"COc1cc2[nH]ncc2cc1Nc1ncnc2sc3c(c12)CCN(C(=O)N1C[C@@H](C)O[C@H](C)C1)C3 [Example 95, [(2R,6R)-2,6-Dimethylmorpholin-4-yl]{4-[(6-methoxy-1H-indazol-5-yl)amino]-5,8-dihydropyrido[4′,3′:4,5]thieno[2,3-d]pyrimidin-7(6H)-yl}methanone]"
7,4,"CSc1cc2[nH]ncc2cc1Nc1ncnc2sc3c(c12)CCN(C(=O)C1CCN(C)CC1)C3 [Example 74, (1-Methylpiperidin-4-yl)[4-{[6-(methylsulfanyl)-1H-indazol-5-yl]amino}-5,8-dihydropyrido[4′,3′:4,5]thieno[2,3-d]pyrimidin-7(6H)-yl]methanone]"
8,13,"COc1cc2[nH]ncc2cc1Nc1ncnc2sc3c(c12)CCNC3 [Example 8, N-(6-Methoxy-1H-indazol-5-yl)-5,6,7,8-tetrahydropyrido[4′,3′:4,5]thieno[2,3-d]pyrimidin-4-amine]"
9,6,"COc1cc2[nH]ncc2cc1Nc1ncnc2sc3c(c12)CCN(C(=O)CC(F)(F)F)C3 [Example 54, 3,3,3-Trifluoro-1-{4-[(6-methoxy-1H-indazol-5-yl)amino]-5,8-dihydropyrido[4′,3′:4,5]thieno[2,3-d]pyrimidin-7(6H)-yl}propan-1-one]"
10,9,"COc1cc2[nH]ncc2cc1Nc1ncnc2sc3c(c12)CCN(Cc1cc(C(=O)N(C)C)no1)C3 [Example 88, 5-({4-[(6-Methoxy-1H-indazol-5-yl)amino]-5,8-dihydropyrido[4′,3′:4,5]thieno[2,3-d]pyrimidin-7(6H)-yl}methyl)-N,N-dimethyl-1,2-oxazole-3-carboxamide]"
